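Method: 48-hour compound exposure of cells in 96-well plates, five concentrations, linear interpolation of endpoints. At the GI50, growth is halved. TGI: total growth inhibition.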
Experiments:
Test in all cases: DTP human tumour cell line panel, 48 h
OVCAR-5 ovarian = system: OVCAR-5 ovarian
OVCAR-3 ovarian = system: OVCAR-3 ovarian
OVCAR-8 ovarian = system: OVCAR-8 ovarian
U251 CNS = system: U251 CNS
A549 NSCLC = system: A549 NSCLC
UACC-257 melanoma = system: UACC-257 melanoma
SF-268 CNS = system: SF-268 CNS
TK-10 renal = system: TK-10 renal
MDA-MB-231 breast = system: MDA-MB-231 breast
NCI-H522 lung = system: NCI-H522 lung

Structure (SMILES) | TGI (OVCAR-5 ovarian) | TGI (OVCAR-3 ovarian) | TGI (OVCAR-8 ovarian) | TGI (U251 CNS) | TGI (A549 NSCLC) | TGI (UACC-257 melanoma) | TGI (SF-268 CNS) | TGI (TK-10 renal) | GI50 (OVCAR-5 ovarian) | GI50 (OVCAR-3 ovarian) | GI50 (OVCAR-8 ovarian) | GI50 (U251 CNS) | GI50 (MDA-MB-231 breast) | TGI (MDA-MB-231 breast) | GI50 (A549 NSCLC) | GI50 (UACC-257 melanoma) | GI50 (SF-268 CNS) | GI50 (TK-10 renal) | TGI (NCI-H522 lung) | GI50 (NCI-H522 lung)
CC1(O)CC2C(CC1SCCO)C2(C)C (stereo not given) | > 100 µM | > 100 µM | > 100 µM | > 100 µM | > 100 µM | > 100 µM | > 100 µM | > 100 µM |  |  |  |  |  |  |  |  |  |  |  | 
Cc1ccccc1C(=O)Oc1ccc(Oc2ccccc2)cc1 | > 100 µM | > 100 µM | > 100 µM | > 100 µM | > 100 µM | > 100 µM | > 100 µM | > 100 µM |  |  |  |  |  |  |  |  |  |  |  | 
Nc1cc(-c2ccccc2)ccc1O | > 100 µM | > 100 µM | > 100 µM | > 100 µM | > 100 µM | > 100 µM | > 100 µM | > 100 µM | > 100 µM | 68.8 µM | > 100 µM | > 100 µM | 7.32 µM | > 100 µM | > 100 µM | > 100 µM | 65.5 µM | > 100 µM |  | 
CC(=O)OC1CC2CCC1(C)C2(C)C (stereo not given) | > 100 µM | > 100 µM | > 100 µM | > 100 µM |  | > 100 µM | > 100 µM | > 100 µM |  |  |  |  |  | > 100 µM |  |  |  |  | > 100 µM | 
Nc1ccc(Nc2nc(F)nc(-c3c4ccccc4c4n3CCS4)n2)cc1 | 32.8 µM | 34.7 µM | 37.8 µM | 31 µM | 31.2 µM |  | 37.1 µM | 34.2 µM |  |  |  |  |  |  |  |  |  |  | 28.6 µM | 
Cc1ccc(C)c(NC(=O)c2cc(-c3ccc([N+](=O)[O-])cc3)nc(N)n2)c1 | > 100 µM | > 100 µM | > 100 µM | > 100 µM | > 100 µM | > 100 µM | > 100 µM | > 100 µM |  |  |  |  |  |  |  |  |  |  | > 100 µM | 
CCOC(=O)/N=C(\N)SCc1ccccc1 | > 100 µM |  | > 100 µM | > 100 µM | > 100 µM | > 100 µM | > 100 µM | > 100 µM |  |  |  |  |  |  |  |  |  |  | > 100 µM | 
COc1ccc(C(c2ccc(C(C)C)cc(=O)c2O)c2c(O)cc3oc(-c4ccccc4)cc(=O)c3c2O)cc1 (stereo not given) |  | 19 µM | > 100 µM | 22.3 µM | > 100 µM | 72.4 µM |  | 90.3 µM |  |  |  |  |  |  |  |  |  |  |  | 
C=CC1CC12C(=O)C1OC2(C)C2C(=O)c3c(ccc4c3ccc3ccccc34)C(=O)C12 (stereo not given) | > 100 µM |  | > 100 µM | 87.6 µM | > 100 µM | > 100 µM | > 100 µM | > 100 µM | > 100 µM |  | 64.6 µM | 26.7 µM | 39.1 µM | > 100 µM | 95.2 µM | 89.4 µM | 36.2 µM | 52.9 µM | > 100 µM | > 100 µM
C=C1CC(CCCl)(c2ccccc2)OC1=O (stereo not given) | > 100 µM | 71.8 µM | > 100 µM | > 100 µM | > 100 µM | > 75.1 µM | > 90.5 µM | > 77.7 µM |  |  |  |  |  |  |  |  |  |  | 33.2 µM | 
Cc1c(C(=O)/C=C/c2ccc(Cl)cc2)[n+](=O)c2ccccc2n1[O-] | 28.3 µM | 27.4 µM | 23.3 µM | 26.3 µM | 33.6 µM | 30.4 µM | 28.6 µM | 35.5 µM |  |  |  |  |  |  |  |  |  |  | 17 µM | 
